Results taken from patent publication US5804576A, “Derivatives of 5-androsten-17-ones and 5-androstan-17-ones” (Research Corporation Technologies, Inc., priority 1986, dated 1998).
“And” between values parts separate entries of the source, which are not always exact repeats. Equal entries are not always repeated. “Also recorded” adds a separate entry of the source.

Assays:
[1] = test system: (3H) DMBA binding to skin DNA; assay: [3H]DMBA binding to mouse skin DNA, topical steroid; type: in vivo, mouse (A/J)
Description: Skin tumors can be induced in the mouse either by weekly application of a carcinogen such as […] (DMBA), or alternatively,by a single sub-threshold dose of the carcinogen followed by twice weekly applications of the tumor promoter tetradecanoylphorbol-13-acetate (TPA). In order to exert its carcinogenic effect, DMBA must be metabolized by an NADPH-dependent mixed-function oxidase to chemically reactive intermediates which bind covalently to DNA and produce mutations leading to malignant transformation. […] This effect of DHEA very probably is a result of the inhibition of G6PDH and lowering of the intracellular pool of NADPH, which is a co-factor for the mixed-function oxidase activation of DMBA.
Binding of [^3 H]DMBA to mouse skin DNA was determined as described in Pashko, L. L., and Schwartz, A. G. (1983), Effect of food restriction, dehydroepiandrosterone, or obesity on the binding of ^3 H-7,12-dimethylbenz(a)-anthracene to mouse skin DNA, J. Gerontol., 38, 8-12. Values are mean±SD for 3 individual determinations, with pooled tissue from 2 mice used for each determination. DHEA or testosterone (400 ug in 0.2 ml acetone) was applied to the skin one hour before [^3 H]DMBA. The mean weight of the food restricted mice was 18.5±1.0 gm, n=6, of the ad libitum fed, 27.4±1.0 gm, n=6, of the ad libitum fed treated with DHEA, 28.2±0.9 gm, n=6, and of the ad libitum fed treated with testosterone, 28.3±0.9 gm, n=6, following two weeks of feeding. The average food consumed was, in gm/mouse/day, 2.2, 3.8, 3.8 and 4.0 for the food restricted, ad libitum fed, ad libitum fed plus DHEA, and ad libitum fed plus testosterone groups, respectively.

[2] = test system: [3H]DMBA binding to skin DNA; assay: [3H]DMBA binding to skin DNA, oral steroid; type: in vivo, mouse (male A/J)
Experimental: (§1) Male A/J mice were orally intubated with steroid suspended in sesame oil (0.5 ml/mouse) at the indicated dose. Mice not receiving steroid were given sesame oil alone. Food restricted mice received approximately 60% of food of Ad libitum fed for two weeks. One hour after oral intubation, topical [^3 H]DMBA was applied to the skin, and the amount bound to DNA was determined 12 hours later as described in Table 4.
as §1, with “alone.” for “alone. Food restricted mice received approximately 60% of food of Ad libitum fed for two weeks.”

rat uterus [3] = assay: Uterotrophic test, subcutaneous (Compound 2 vs. DHEA); type: in vivo; details: n = 4 or 5
Experimental: Twenty-two day old rats were obtained from Charles River Laboratories. Animals were used at 29 days of age. Test steroids were suspended by homogenization in sesame oil. Rats were orally intubated at 1-2 P.M. for 3 days with a test steroid in sesame oil or with sesame oil alone (control). On the 4th day the animals were killed and the uteri were removed and weighed.
Compound 2 vs. DHEA. Compounds Administered by Subcutaneous Injection
Steroids were dissolved in 2 ml ethanol and brought up to 5 ml volume with propylene glycol. Concentrations were such that 1 μl/gm body weight delivered the indicated dose.

[4] = test system: seminal vesicles plus prostate glands; assay: Androgenic and anti-androgenic activity (seminal vesicle plus prostate weight); type: in vivo, mouse (male A/J); details: con't. experiment; five weeks; DHEA 0.54%; n = 5
[5] = test system: many different cell lines in culture; details: 10^-5 M to 10^-4 M; cited from earlier work
HeLa cell strain, TCRC-2 = details: HeLa TCRC-2; cited from earlier work
[6] = test system: breast, lung, and colon tumors; details: approximately 400 mg/kg daily, long-term; cited from earlier work
[7] = test system: 3H-thymidine incorporation in mouse epidermis; details: in vivo; cited from earlier work
[8] = test system: cultured rat kidney epithelial cell line; details: cited from earlier work
[9] = test system: Epstein-Barr virus-induced transformation of human lymphocytes; details: cited from earlier work
rat uterus [10] = details: 60 mg/kg s.c. for 3 days, sexually immature rats; cited from earlier work
[11] = test system: rat uterus; mouse seminal vesicle plus prostate; details: prolonged administration; cited from earlier work

SMILES: C[C@]12CC[C@H](O)CC1=CC[C@@H]1[C@@H]2CC[C@]2(C)C(=O)CC[C@@H]12 [DHEA, 3β-Hydroxy-5-androst-en-17-one, reference compound]
- SPECIFIC ACTIVITY ([3H]DMBA bound to skin DNA) ([1]; 400 ug topical one hour before DMBA, ad libitum fed, Table 4): 66 ± 13 cpm/ug DNA
- rate of binding of topically applied 3H-DMBA to skin DNA (in words) ([1]; topical, A/J mouse): inhibits the rate of binding of topically applied ^3 H-DMBA to A/J mouse skin DNA
- SPECIFIC ACTIVITY ([3H]DMBA bound to skin DNA) ([2]; 400 mg/kg p.o., 12 hours): 73.1 ± 16.5 cpm/ug DNA and 92 ± 17.6 cpm/ug DNA
- 3H-DMBA binding to skin DNA (in words) ([2]; oral, single administration): does not inhibit ^3 H-DMBA binding to skin DNA; also recorded: inactive
- Mean Uterine Weight (rat uterus [3]; 10 mg/kg s.c.): 152 ± 17 Mgs
- Mean Uterine Weight (rat uterus [3]; 60 mg/kg s.c.): 290 ± 72 Mgs
- Mean Seminal Vesicle plus Prostate Weight ± S.D. [4]: 5.02 ± 0.41 mg/100 gm body weight
- growth of cell lines in culture (in words) [5]: slows the growth of many different cell lines in culture
- sensitivity to growth inhibition (in words) (HeLa cell strain, TCRC-2): particularly sensitive to DHEA-induced growth inhibition
- tumor development (in words) [6]: inhibit the development of breast, lung, and colon tumors
- 3H-thymidine incorporation in mouse epidermis (in words) [7]: antagonizes the capacity of the tumor promoter
- TPA stimulation of 3H-thymidine incorporation (in words) [8]: antagonizes the capacity of the tumor promoter
- inhibition of Epstein-Barr virus-induced transformation (in words) [9]: inhibitors of Epstein-Barr virus-induced transformation of human lymphocytes
- uterine enlargement (in words) (rat uterus [10]): produces uterine enlargement
- estrogenic effect (in words) [11]: evidence of an estrogenic effect after prolonged administration
